Source: PMC12307932, “Convergent evolution of distinct D-ribulose utilisation pathways in attaching and effacing pathogens” (Nature Communications, 2025)
Where two headings read alike, the source gives them in different places.

Target: T1, AauA (Escherichia coli, UniProt Q8X6A6)
T1 construct: gene ECs_0374
Test: isothermal titration calorimetry
Assay type: binding

T1 sequence (Q8X6A6 29-328 limits assumed): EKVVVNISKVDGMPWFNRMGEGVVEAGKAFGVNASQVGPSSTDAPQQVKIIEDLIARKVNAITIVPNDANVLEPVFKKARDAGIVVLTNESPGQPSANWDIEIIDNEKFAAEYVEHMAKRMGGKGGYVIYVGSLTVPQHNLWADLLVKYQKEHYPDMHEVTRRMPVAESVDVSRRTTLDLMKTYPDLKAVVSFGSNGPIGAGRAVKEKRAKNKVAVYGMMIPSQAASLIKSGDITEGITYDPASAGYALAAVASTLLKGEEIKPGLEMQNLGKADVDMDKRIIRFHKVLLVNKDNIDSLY

**Q.** How did the Kd turn out when `O=C(CO)[C@H](O)[C@H](O)CO` [D-ribulose] was run?
**A.** 1.98 ± 0.3 µM

**Q.** How did the Kd (50 mM HEPES, 150 mM NaCl, pH 7.0, 25 °C, 70 µM AauA, single-site model) turn out when `OC1OC[C@H](O)[C@H](O)[C@H]1O` (some centres unmarked) [ʟ-arabinose] was run?
**A.** 598 ± 132 µM
